Assay results as given in patent publication US20230330134A1, “METHOD OF PROPHYLAXIS OF CORONAVIRUS AND/OR RESPIRATORY SYNCYTIAL VIRUS INFECTION” (Starpharma Pty Ltd., priority 2020, published 2023).
Where two headings read alike, the source gives them in different places.

Assays:
[1] = system: SARS-CoV-2 (2019-nCoV/USA-WA1/2020); assay: Virucidal evaluation with neutralization through sucrose cushion, plaque assay; type: cell-based
[2] = system: Coronavirus strain OC43 (ZeptoMetrix Corp. #0810024CF); settings: final 28.76 mg/mL; for CPE in four replicates, Test: HCT-8
Vero E6 cells [3] = system: Vero E6 cells
[4] = system: SARS-CoV-1 (Urbani) Spike-pseudotyped GFP reporter lentiviral particles; type: cell-based
[5] = rats
SARS-CoV-2 = type: cell-based; settings: 25 mg/mL incubated with 10^5 TCID50/mL virus, 37° C., 60 minutes; titrated on Vero cells
[6] = system: SARS-CoV-2 2019-nCoV/USA-WAl/2020; assay: Antiviral activity in primary human bronchial epithelial cells (HBEpC); type: cell-based; settings: 1.1, 3.3 and 10 mg/mL added 1 hour prior to infection, day 4, maximum
[7] = system: Coronavirus strain 229E (ATCC #VR-740); settings: final 28.76 mg/mL; for CPE in four replicates, Test: MRC-5
[8] = system: SARS-CoV-2 (2019-nCoV/USA-WAl/2020 strain); type: in vivo, human ACE2 transgenic mice K18-hACE2; settings: 1%, 3% or 5% SPL7013 in PBS intranasally for 7 days (0.5, 1.5, 2.5 mg daily); significant vs control at the highest dose
HCT-8 cells = settings: no virus
[9] = system: SARS-CoV-2 (Wuhan-Hu-1) Spike-pseudotyped GFP reporter lentiviral particles; type: cell-based; settings: 10 and 30 mg/mL, added 1 hour prior
[10] = system: SARS-CoV-2 (2019-nCoV/USA-WA1/2020); assay: microbe, parasite or virus in culture; type: cell-based; settings: Day 4 post-infection
Vero E6 cells [11] = settings: Day 4
[12] = system: MERS-CoV (HCoV-EMC) Spike-pseudotyped GFP reporter lentiviral particles; type: cell-based
MRC-5 cells = settings: no virus
[13] = 60 seconds exposure, dilution (-Log10) -6
[14] = 60 seconds exposure, dilution (-Log10) -7
[15] = 60 minutes exposure, dilution (-Log10) -7

astodrimer sodium [SPL7013]
Reduction vs. Virus Control (Log10± SD) ([1]; 10 mg/mL, 10^6 pfu/mL, 15 min incubation, 96 hours post-infection, Vero E6): 3.67 ± 0.23 Log10
reduction in virus infectivity ([1]; 1 to 30 mg/mL, inoculums 10^4, 10^5 and 10^6 pfu/mL, 10 to 15 minutes exposure): > 99.9%
reduction in virus infectivity ([1]; 10^4 pfu/mL viral inoculum, 10 to 30 mg/mL, 10 to 15 min incubation): > 99.999%
SARS-CoV-2 inactivated ([1]; >10 mg/mL, 10^4 pfu/mL, within as little as 1 minute of exposure, 16 hours post-infection): > 99.9%
reduced infectivity ([1]; Vero E6, 10^6 pfu/mL, incubation 15 to 30 minutes, 10 to 30 mg/mL): > 99.999%
reduction of infectivity ([1]; after 1 minute of exposure to the virus): > 99.9%
virucidal effect ([1]; exposure to virus for 30 seconds): no detectable virucidal effect
CPE in four replicates, Test [2, 13]: 0000
CPE in four replicates, Test [2, 14]: 0000
Log10 Reduction ([2]; 60 seconds exposure): 0.50 log10
TCID50 (log10), Test ([2]; 60 seconds exposure): 5.50 log10
Percent Reduction ([2]; 60 seconds exposure, listed as SPL7013 aqueous solution): 68.38%
CPE in four replicates, Test ([2]; 60 minutes exposure, dilution (-Log10) -6): +000
CPE in four replicates, Test [2, 15]: 0000
Log10 Reduction ([2]; 60 minutes exposure): 0.50 log10
Percent Reduction ([2]; 60 minutes exposure): 68.38%
TCID50 (log10), Test ([2]; 60 minutes exposure): 5.25 log10
cytotoxicity (Vero E6 cells [3]): not observed
binding/infection of Vero E6 cells by spike-pseudotyped lentivirus (GFP-positive cells, FACS) [4]: potently inhibited
SPL7013 in pooled plasma sample ([5]; 1% group, one 3 hr sample (called an aberration)): 0.635 µg/mL
SPL7013 in pooled plasma samples (LLOQ) ([5]; 1% or 3% Nasal Spray 4 times daily for 7 days, Day 1 and Day 7, pre-dose to 6 hr, all samples but one): < 0.5 µg/mL
viricidal activity (SARS-CoV-2): stopped all virus growth
reduction of infection in the plaque assay [6]: up to 95%
reduction of infection vs virus control by nucleocapsid ELISA [6]: up to 98%
CPE in four replicates, Test [7, 13]: 0000
CPE in four replicates, Test [7, 14]: 0000
Log10 Reduction ([7]; 60 seconds exposure): 0.75 log10
Percent Reduction ([7]; 60 seconds exposure): 82.22%
TCID50 (log10), Test ([7]; 60 seconds exposure): 5.50 log10
CPE in four replicates, Test ([7]; 60 minutes exposure, dilution (-Log10) -5): +0+0
CPE in four replicates, Test [7, 15]: 0000
Log10 Reduction ([7]; 60 minutes exposure): 0.75 log10
Percent Reduction ([7]; 60 minutes exposure): 82.22%
TCID50 (log10), Test ([7]; 60 minutes exposure): 5.25 log10
viral copies (qPCR) in nasal swabs at Day 7 [8]: dose dependent decrease
TCID50 (log10), CTC (Cytotoxicity Control) (HCT-8 cells): 1.50 log10
CPE in four replicates, CTC (Cytotoxicity Control) (HCT-8 cells; dilution (-Log10) -2): 0000
CPE in four replicates, CTC (Cytotoxicity Control) (HCT-8 cells; dilution (-Log10) -3): 0000
CPE in four replicates, CTC (Cytotoxicity Control) (HCT-8 cells; dilution (-Log10) -4): 0000
binding/infection of Vero E6 cells by spike-pseudotyped lentivirus (GFP-positive cells, FACS) [9]: potently inhibited
EC50 ([10]; added 1-hour post-infection, Calu-3): 30 µg/mL
EC50 ([10]; added 1-hour post-infection, Vero E6): 19 µg/mL
EC50 ([10]; added 1-hour pre-infection, Calu-3): 37 µg/mL
EC50 ([10]; added 1-hour pre-infection, Vero E6): 32 µg/mL
EC50 ([10]; added at time of infection, Calu-3): 35 µg/mL
EC50 ([10]; added at time of infection, Vero E6): 20 µg/mL
CC50 (Vero E6 cells [11]): 15090 µg/mL
binding/infection of Vero E6 cells by spike-pseudotyped lentivirus (GFP-positive cells, FACS) [12]: potently inhibited
TCID50 (log10), CTC (Cytotoxicity Control) (MRC-5 cells): 1.50 log10
CPE in four replicates, CTC (Cytotoxicity Control) (MRC-5 cells; dilution (-Log10) -2): 0000
CPE in four replicates, CTC (Cytotoxicity Control) (MRC-5 cells; dilution (-Log10) -3): 0000
CPE in four replicates, CTC (Cytotoxicity Control) (MRC-5 cells; dilution (-Log10) -4): 0000
